Consider 22 molecules from ChEMBL document CHEMBL3758091, “Identification of N-(6-mercaptohexyl)-3-(4-pyridyl)-1H-pyrazole-5-carboxamide and its disulfide prodrug as potent histone deacetylase inhibitors with in vitro and in vivo anti-tumor efficacy” (Eur J Med Chem, 2016).

A value given as a limit tells only on which side of the number the result lay.

Data set [1] in a line: cells. It counts as functional. The following applies: Homo sapiens, HCT-116, 96 h.
Description: Growth inhibition of human HCT116 cells after 96 hrs by MTT assay
The next data set has as its target Histone deacetylase 1 (Homo sapiens, UniProt Q13547). As to the kind of experiment: Inhibition of recombinant human HDAC1 using Boc-Lys(Ac)-AMC as substrate preincubated for 15 mins followed by substrate addition measured after 60 mins by fluorescence-based assay.
Data set [2] concerns the target T1, Protein deacetylase HDAC6 (Homo sapiens, UniProt Q9UBN7).
T1 sequence (Q9UBN7 whole entry): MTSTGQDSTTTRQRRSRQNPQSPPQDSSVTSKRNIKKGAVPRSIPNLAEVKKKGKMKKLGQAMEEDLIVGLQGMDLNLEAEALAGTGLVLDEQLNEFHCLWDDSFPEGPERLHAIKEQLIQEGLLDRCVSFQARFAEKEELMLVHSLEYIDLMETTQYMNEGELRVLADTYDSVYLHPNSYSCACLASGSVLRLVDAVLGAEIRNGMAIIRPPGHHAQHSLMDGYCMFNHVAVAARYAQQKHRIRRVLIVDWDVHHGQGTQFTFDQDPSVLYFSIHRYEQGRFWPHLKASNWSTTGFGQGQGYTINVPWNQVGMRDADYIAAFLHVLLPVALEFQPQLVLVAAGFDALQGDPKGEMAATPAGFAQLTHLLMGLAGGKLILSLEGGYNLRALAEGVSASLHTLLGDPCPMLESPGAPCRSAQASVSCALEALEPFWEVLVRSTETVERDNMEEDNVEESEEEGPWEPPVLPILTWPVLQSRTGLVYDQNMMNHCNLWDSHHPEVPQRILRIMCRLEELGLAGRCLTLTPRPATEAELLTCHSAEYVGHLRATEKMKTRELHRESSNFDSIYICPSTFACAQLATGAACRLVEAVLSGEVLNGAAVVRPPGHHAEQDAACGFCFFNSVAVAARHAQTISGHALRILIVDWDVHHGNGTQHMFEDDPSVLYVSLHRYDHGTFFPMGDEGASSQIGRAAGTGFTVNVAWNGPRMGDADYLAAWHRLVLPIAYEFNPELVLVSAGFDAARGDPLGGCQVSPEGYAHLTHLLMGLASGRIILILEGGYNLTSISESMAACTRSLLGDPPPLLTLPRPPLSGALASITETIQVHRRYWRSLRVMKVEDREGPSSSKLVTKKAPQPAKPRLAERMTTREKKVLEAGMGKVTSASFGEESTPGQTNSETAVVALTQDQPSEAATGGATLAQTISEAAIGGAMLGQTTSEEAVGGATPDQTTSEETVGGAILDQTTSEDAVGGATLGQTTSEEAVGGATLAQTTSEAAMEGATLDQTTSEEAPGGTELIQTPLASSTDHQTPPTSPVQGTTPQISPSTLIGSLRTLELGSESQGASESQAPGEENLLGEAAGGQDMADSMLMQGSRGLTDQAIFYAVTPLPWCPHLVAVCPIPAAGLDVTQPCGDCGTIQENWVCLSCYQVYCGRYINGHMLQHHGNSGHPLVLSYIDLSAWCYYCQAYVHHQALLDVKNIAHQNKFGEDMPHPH
As to the kind of experiment: Inhibition of recombinant human HDAC6 using Boc-Lys(Ac)-AMC as substrate preincubated for 15 mins followed by substrate addition measured after 60 mins by fluorescence-based assay.

The test system of a further data set is MCF7. Kind of data set: cells. It counts as functional. The settings on record: Homo sapiens, MCF7, 96 h.
A further data set concerns the target Histone deacetylase. As to the kind of experiment: Inhibition of HDAC in human HeLa cell nuclear extract using Boc-Lys(Ac)-AMC as substrate preincubated for 15 mins followed by substrate addition measured after 60 mins by fluorescence-based assay.
In a further data set the test system is MDA-MB-231. As to the kind of experiment: cells. It counts as functional. The settings on record: Homo sapiens, MDA-MB-231, 96 h.
Data set [3] in a line: cells. The settings on record: Homo sapiens, PC-3, 96 h. Format: functional.
Description: Growth inhibition of human PC3 cells after 96 hrs by MTT assay
The test system of the next data set is HT-29. As to the kind of experiment: Growth inhibition of human HT-29 cells after 96 hrs by MTT assay. The settings on record: Homo sapiens, HT-29, 96 h. Format: functional. On the technique in general: Tetrazolium dyes change colour on reduction, which living cells bring about.
A short description of data set [4]: cells. Format: functional. The following applies: Homo sapiens, ASPC1, 96 h.
Description: Growth inhibition of human Aspc-1 cells after 96 hrs by MTT assay
A short description of data set [5]: Cytotoxicity against HEK293 cells assessed as growth inhibition after 96 hrs by MTT assay. The settings on record: human.
The test system of the next data set is A549. As to the kind of experiment: cells. Format: functional. The settings on record: Homo sapiens, A549, 96 h.

Chain of Histone deacetylase 1 (Q13547 whole entry): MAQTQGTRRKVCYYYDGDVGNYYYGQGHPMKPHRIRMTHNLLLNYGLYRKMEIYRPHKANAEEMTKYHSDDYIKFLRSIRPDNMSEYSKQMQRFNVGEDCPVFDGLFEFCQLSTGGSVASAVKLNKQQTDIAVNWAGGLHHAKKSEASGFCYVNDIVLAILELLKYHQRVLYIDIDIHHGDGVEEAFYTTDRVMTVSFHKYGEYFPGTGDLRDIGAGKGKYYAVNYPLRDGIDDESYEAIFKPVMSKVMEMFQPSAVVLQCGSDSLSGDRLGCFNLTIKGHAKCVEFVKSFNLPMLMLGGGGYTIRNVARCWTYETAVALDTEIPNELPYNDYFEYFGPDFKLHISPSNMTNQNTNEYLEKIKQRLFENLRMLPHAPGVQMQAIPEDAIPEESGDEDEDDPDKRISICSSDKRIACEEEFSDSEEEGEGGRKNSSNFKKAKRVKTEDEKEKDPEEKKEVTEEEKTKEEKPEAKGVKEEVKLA
Description for A549: Growth inhibition of human A549 cells after 96 hrs by MTT assay
Description for MCF7: Growth inhibition of human MCF7 cells after 96 hrs by MTT assay
Description for MDA-MB-231: Growth inhibition of human MDA-MB-231 cells after 96 hrs by MTT assay

A word on the GI50: it is the concentration at which growth is held to half of that of the control. By IC50 is commonly meant the point on the concentration scale where inhibition reaches its midpoint. On to `O=C(NCCCCCCS)c1cc(-c2ccc3ccccc3c2)n[nH]1`, for which the GI50 in the data set “cells [1]” and in the data set with MCF7 was over 50 µM each time. In addition, the values for the IC50 (on Histone deacetylase 1; in data set [2]; against Histone deacetylase) were 0.133 µM, 0.235 µM and 0.102 µM, respectively.
Take `CCCCCCCC/C=C\CCCCCCCC(=O)SCCCCCCNC(=O)c1cc(-c2ccncc2)n[nH]1`: the GI50 in the data set on MDA-MB-231 is over 50 µM; in “cells [3]”, over 50 µM; in “cells [1]”, 39.3 µM; in the data set on HT-29, 23.5 µM; in “cells [4]”, over 50 µM; with MCF7, 31.1 µM. This molecule yielded a 50% growth inhibitory concentration (GI50) in the data set on A549 of 33.3 µM. For the same molecule, the GI50 at 96 h in [5] was over 50 µM.
As to `O=C(NCCCCCCS)c1cc(-c2cccc3ccccc23)n[nH]1`, the GI50 in the data set “cells [1]” and in the data set with MCF7 was over 50 µM each time. Besides, the IC50 at Histone deacetylase 1 was 0.429 µM; in data set [2], 0.244 µM; against Histone deacetylase it was 0.608 µM.
With `O=C(NCCCCCCS)c1cc(-c2ccccc2)n[nH]1`, the GI50 in the data set “cells [1]” and in the data set on MCF7 was over 50 µM in each case. The IC50 at Histone deacetylase 1 is 0.098 µM; in data set [2], 0.03 µM; against Histone deacetylase it was 0.023 µM.
For `CSCCCCCCNC(=O)c1cc(-c2ccncc2)n[nH]1`, the GI50 in the data set with MDA-MB-231, in “cells [3]”, in the data set “cells [1]”, in the data set with HT-29, in the data set “cells [4]” and in the data set on MCF7 was over 50 µM each time. The molecule further had a GI50 in the data set with A549 of over 50 µM. Moreover, the GI50 at 96 h in data set [5] was over 50 µM.
Take `COc1ccc(-c2cc(C(=O)NCCCCCCS)[nH]n2)cc1OC`: the GI50 in the data set “cells [1]” is over 50 µM; in the data set on MCF7 it was 30.8 µM. The IC50 at Histone deacetylase 1 amounted to 0.31 µM; in data set [2], 0.056 µM; against Histone deacetylase, 0.056 µM.
`O=C(NCCCCCCS)c1cc(-c2c[nH]c3ccccc23)n[nH]1`: the GI50 in “cells [1]” is over 50 µM; in the data set on MCF7 it was 18.2 µM. In addition, the values for the IC50 (at Histone deacetylase 1; in [2]; on Histone deacetylase) were 0.15 µM, 0.033 µM and 0.07 µM, respectively.
In the case of `O=C(NCCCCCCS)c1cc(-c2ccc(-c3ccccc3)cc2)n[nH]1`, the GI50 in “cells [1]” and with MCF7 was over 50 µM throughout. The IC50 at Histone deacetylase 1 is 0.225 µM; in data set [2], 0.106 µM; against Histone deacetylase, 0.043 µM.
Take `O=C(OCc1ccccc1)SCCCCCCNC(=O)c1cc(-c2ccncc2)n[nH]1`: the GI50 with MDA-MB-231 was 24.7 µM; in “cells [3]” it was 15.4 µM; in the data set “cells [1]”, 18.2 µM; with HT-29 it was 22 µM; in the data set “cells [4]”, 32.3 µM; in the data set with MCF7, 8.37 µM. Growth with A549 was halved (GI50) at 13.4 µM. Besides, in data set [5], the GI50 at 96 h is 19.7 µM.
For `O=C(CCCCCCS)Nc1ccccc1`, the GI50 in “cells [1]” and in the data set on MCF7 was over 50 µM each time.
`O=C(NCCCCCCS)c1cc(-c2ccc(F)cc2)n[nH]1`: the GI50 in “cells [1]” and in the data set with MCF7 was over 50 µM in each case. The same molecule had an IC50 at Histone deacetylase of 0.245 µM.
`O=C(NCCCCCCS)c1cc(C2CCCCC2)n[nH]1`: the GI50 in the data set “cells [1]” and with MCF7 was over 50 µM in each case. For the same molecule, the IC50 on Histone deacetylase 1 stood at 0.331 µM; in data set [2], 0.241 µM; against Histone deacetylase it was 0.364 µM.
As to `CC(=O)SCCCCCCNC(=O)c1cc(-c2ccncc2)n[nH]1`, the GI50 in the data set on MDA-MB-231 is over 50 µM; in the data set “cells [3]” it was 36 µM; in the data set “cells [1]”, 41.1 µM; with HT-29, 23.1 µM; in the data set “cells [4]”, over 50 µM; in the data set on MCF7 it was 24.9 µM. In the data set with A549, this molecule displayed a GI50 of 18 µM. The GI50 at 96 h in [5] is over 50 µM.
Regarding `O=C(NCCCCCCS)c1ccn[nH]1`, the GI50 in “cells [1]” and with MCF7 was over 50 µM throughout. Further, the results for the IC50 (at Histone deacetylase 1; in [2]; against Histone deacetylase) were 0.526 µM, 0.092 µM and 0.081 µM, respectively.
On to `CC(C)C(=O)SCCCCCCNC(=O)c1cc(-c2ccncc2)n[nH]1`, for which the GI50 in the data set with MDA-MB-231 was over 50 µM; in “cells [3]”, 22.4 µM; in “cells [1]” it was 22.7 µM; with HT-29, 25.7 µM; in “cells [4]”, 31.7 µM; with MCF7, 15.2 µM. In the data set on A549, this molecule had a concentration for 50% growth inhibition (GI50) of 16.8 µM. Also, the 50% growth inhibitory concentration (GI50) at 96 h in data set [5] is over 50 µM.
Consider `Cc1cc(C(=O)NCCCCCCS)[nH]n1`, for which the GI50 in “cells [1]” and in the data set on MCF7 was over 50 µM throughout. The IC50 against Histone deacetylase is 0.715 µM.
As for `COc1ccc(-c2cc(C(=O)NCCCCCCS)[nH]n2)cc1`, the results for the GI50 in the data set “cells [1]” and with MCF7 were over 50 µM and 14.8 µM, respectively. The half-inhibitory concentration (IC50) in data set [2] is 0.167 µM; against Histone deacetylase it was 0.15 µM.
Turning to `CCCC(=O)SCCCCCCNC(=O)c1cc(-c2ccncc2)n[nH]1`, the GI50 in the data set on MDA-MB-231 was over 50 µM; in “cells [3]”, 32.1 µM; in the data set “cells [1]”, 23.5 µM; in the data set with HT-29, 12.4 µM; in the data set “cells [4]”, 28.1 µM; in the data set with MCF7 it was 12.1 µM. This molecule came in with a GI50 with A549 of 15.1 µM. Further, the 50% growth inhibitory concentration (GI50) at 96 h in data set [5] was over 50 µM.
In the case of `CCC(=O)SCCCCCCNC(=O)c1cc(-c2ccncc2)n[nH]1`, the GI50 in the data set with MDA-MB-231, in the data set “cells [3]”, in the data set “cells [1]”, in the data set on HT-29, in the data set “cells [4]” and in the data set with MCF7 was over 50 µM in each case. The molecule further gave a GI50 in the data set with A549 of over 50 µM. Besides, the 50% growth inhibitory concentration (GI50) at 96 h in data set [5] is over 50 µM.
Consider `O=C(NCCCCCCS)c1cc(-c2ccccn2)n[nH]1`, for which the GI50 is over 50 µM in “cells [1]” and 26.8 µM in the data set on MCF7. The IC50 on Histone deacetylase 1 was 0.124 µM; in [2], 0.027 µM; against Histone deacetylase, 0.033 µM.
For the molecule `C=CCOC(=O)SCCCCCCNC(=O)c1cc(-c2ccncc2)n[nH]1`, the GI50 in the data set with MDA-MB-231 was found to be 36 µM; in the data set “cells [3]”, 24.8 µM; in “cells [1]”, 32.9 µM; in the data set on HT-29 it was 11.9 µM; in the data set “cells [4]”, 27.5 µM; in the data set with MCF7, 12.6 µM. Also, in the data set on A549, growth was halved (GI50) at 15.2 µM. In data set [5], the concentration for 50% growth inhibition (GI50) at 96 h amounted to 27.5 µM.
As for `COc1cc(-c2cc(C(=O)NCCCCCCS)[nH]n2)cc(OC)c1OC`, the GI50 in “cells [1]” and in the data set with MCF7 was over 50 µM throughout. In addition, the IC50 at Histone deacetylase 1 was 0.422 µM; in [2], 0.084 µM; against Histone deacetylase it was 0.102 µM.
